Entries after “also recorded” stand apart in the source; their conditions may differ.
Legend:
PAS-B domain of HIF-1α = target: T1, PAS-B domain of HIF-1α (Homo sapiens, UniProt Q16665); assay: Isothermal titration calorimetry, PAS-B; assay type: binding; details: ITC, 25 °C, pH 7.5, 10 µM PAS-B
T1 construct: Per-ARNT-Sim-B (PAS-B, amino acids 235–350) domains; His (N); made in house; host or cells: E. coli BL21(DE3)

[1] = tested on: VEGF protein in hypoxic MCF-7 cells; assay: VEGF protein ELISA, MCF-7; assay type: cell-based, human; details: MCF-7, hypoxia, 100 μM
Protocol: Cells were treated with the stated concentrations of inhibitor (P1, P2, or P3) and incubated in normoxia for 4 h, followed by incubation in a hypoxic environment. All manipulation of cell pellets (e.g., lysis, mRNA, and protein extraction) was conducted in a hypoxic environment. […]
manufacturer’s instructions.
The loaded beads were washed and blocked with the provide buffers. […]
reagent (RPN2232, GE Healthcare).
Fluorescent binding assay
Scientific, catalogue no. […]
followed by washing with 3 × 200 µL ELISA buffer. 95 µL of EMSA buffer was added to […]
The fluorescence of each well at
Isothermal Titration Calorimetry […]
iTC200 system (GE Healthcare).
P2) was dissolved in the same buffer.
Control experiments for P1 or P2
Quantification of VGEF-A protein by ELISA […]
incubation in hypoxia for 16h. VEGF-A protein concentration was quantified by human

[2] = tested on: CAIX mRNA in hypoxic MCF-7 cells; assay: CAIX mRNA qPCR, MCF-7; assay type: cell-based; details: MCF-7, hypoxia, 100 μM
Protocol: Cells were treated with the stated concentrations of inhibitor (P1, P2, or P3) and incubated in normoxia for 4 h, followed by incubation in a hypoxic environment. All manipulation of cell pellets (e.g., lysis, mRNA, and protein extraction) was conducted in a hypoxic environment.
Total RNA was extracted from MCF-7 and U2OS cells using RNeasy Mini Kit (74104, QIAGEN) and quantified using a Nanodrop ND-1000 spectrophotometer. Complementary DNA was synthesized in a 20 μL reaction containing 1 μg of total RNA, using qScript cDNA SuperMix (95048-100, Quanta Biosciences) according to the manufacturer’s instructions. Quantitative real-time PCRs were performed using Universal Taqman PCR master mix (Applied Biosystems) >and the Taqman gene expression assay of interest (Applied Biosystems) on an ABI StepOnePlus Real-Time PCR system (Applied Biosystems). Expression assays used in this study were HIF-1α (00936376_m1), VEGF-A (Hs00173626_m1), CAIX (Hs00154208_m1), LOX (Hs00942480_m1), HIF2α (Hs01026149_m1), CITED2 (Hs01897804_s1), and 18S (Hs99999901_m1). All expression values were normalized using expression of 18S.

T1 sequence (Q16665 235-350): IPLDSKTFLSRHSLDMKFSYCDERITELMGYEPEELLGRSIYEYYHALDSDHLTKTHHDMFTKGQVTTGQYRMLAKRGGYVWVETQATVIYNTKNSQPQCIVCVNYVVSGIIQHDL

## Tat-cyclo-CRLMVL (head to tail) [P2, cyclo-CRLMVL tagged with Tat peptide via a disulfide bond; used as negative control]
PAS-B domain of HIF-1α
  binding to PAS-B domain: no binding; also recorded: did not bind
[1]
  VEGF protein level: has no effect in either cell line
[2]
  CAIX mRNA: no effect

From paper PMC3715890, “A Cyclic Peptide Inhibitor of HIF-1 Heterodimerization That Inhibits Hypoxia Signaling in Cancer Cells” (Journal of the American Chemical Society, 2013)
